Data as given in the supplement of paper PMC4862054.

Assays:
Conditions in all cases: incubation time: 72 h
[1] = tested on: BT-474; assay: normalised response (% of control), CellTox Green; higher = less cell death (100 = DMSO, 0 = benzethonium chloride kill control)
How it was run: (§1)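 Breast cancer cell lines (20 µl suspension) were seeded into 384-well plates holding compound at 5 concentrations in 10-fold steps over a compound-specific 10,000-fold range, then incubated 72 h. CellTox Green fluorescence (485/520 nm) was read first, then CellTiter-Glo luminescence after 10 min at room temperature. Each plate was normalised to 0.1 % DMSO (100) and a positive kill control (0). Each value is the normalised signal at a single concentration of the series.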

[2] = tested on: BT-549; assay: as above
How it was run: as §1

[3] = tested on: CAL-120; assay: as above
How it was run: as §1

[4] = tested on: CAL-148; assay: as above
How it was run: as §1

[5] = tested on: CAL-51; assay: as above
How it was run: as §1

[6] = tested on: CAL-85-1; assay: as above
How it was run: as §1

[7] = tested on: DU-4475; assay: as above
How it was run: as §1

[8] = tested on: HCC1143; assay: as above
How it was run: as §1

[9] = tested on: HCC1599; assay: as above
How it was run: as §1

[10] = tested on: HCC1937; assay: as above
How it was run: as §1

[11] = tested on: HDQ-P1; assay: as above
How it was run: as §1

[12] = tested on: Hs578T; assay: as above
How it was run: as §1

[13] = tested on: MCF-10A; assay: as above
How it was run: as §1

[14] = tested on: MDA-MB-231; assay: as above
How it was run: as §1

[15] = tested on: MDA-MB-436; assay: as above
How it was run: as §1

[16] = tested on: MDA-MB-453; assay: as above
How it was run: as §1

[17] = tested on: MDA-MB-468; assay: as above
How it was run: as §1

[18] = tested on: MFM-223; assay: as above
How it was run: as §1

[19] = tested on: BT-474; assay: normalised response (% of control), CellTiter-Glo; higher = more viable cells (100 = DMSO, 0 = benzethonium chloride kill control)
How it was run: as §1

[20] = tested on: BT-549; assay: as above
How it was run: as §1

[21] = tested on: CAL-120; assay: as above
How it was run: as §1

[22] = tested on: CAL-148; assay: as above
How it was run: as §1

[23] = tested on: CAL-51; assay: as above
How it was run: as §1

[24] = tested on: CAL-85-1; assay: as above
How it was run: as §1

[25] = tested on: DU-4475; assay: as above
How it was run: as §1

[26] = tested on: HCC1143; assay: as above
How it was run: as §1

[27] = tested on: HCC1599; assay: as above
How it was run: as §1

[28] = tested on: HCC1937; assay: as above
How it was run: as §1

[29] = tested on: HDQ-P1; assay: as above
How it was run: as §1

[30] = tested on: Hs578T; assay: as above
How it was run: as §1

[31] = tested on: MCF-10A; assay: as above
How it was run: as §1

[32] = tested on: MDA-MB-231; assay: as above
How it was run: as §1

[33] = tested on: MDA-MB-436; assay: as above
How it was run: as §1

[34] = tested on: MDA-MB-453; assay: as above
How it was run: as §1

[35] = tested on: MDA-MB-468; assay: as above
How it was run: as §1

[36] = tested on: MFM-223; assay: as above
How it was run: as §1

[37] = tested on: SK-BR-3; assay: as above
How it was run: as §1

SMILES	normalised response [1] [%]	normalised response [2] [%]	normalised response [3] [%]	normalised response [4] [%]	normalised response [5] [%]	normalised response [6] [%]	normalised response [7] [%]	normalised response [8] [%]	normalised response [9] [%]	normalised response [10] [%]	normalised response [11] [%]	normalised response [12] [%]	normalised response [13] [%]	normalised response [14] [%]	normalised response [15] [%]	normalised response [16] [%]	normalised response [17] [%]	normalised response [18] [%]	normalised response [19] [%]	normalised response [20] [%]	normalised response [21] [%]	normalised response [22] [%]	normalised response [23] [%]	normalised response [24] [%]	normalised response [25] [%]	normalised response [26] [%]	normalised response [27] [%]	normalised response [28] [%]	normalised response [29] [%]	normalised response [30] [%]	normalised response [31] [%]	normalised response [32] [%]	normalised response [33] [%]	normalised response [34] [%]	normalised response [35] [%]	normalised response [36] [%]	normalised response [37] [%]
C=CC(=O)Nc1cc2c(Nc3ccc(F)c(Cl)c3)ncnc2cc1OCCCN1CCOCC1 [Canertinib] (10000 nM)	55.4	55.1	31	65.4	5.47	-11	89.5	84.5	111	80.3	37.8	-21.7	-28.8	13.5	87.1	87.6	-36.9	26.9	15.9	4.73	26.6	42.9	3.06	3.6	74.1	24.3	66.4	14.5	1.5	17.4	0.13	5	22.2	25.5	2.49	26.4	24.4
O=C(Cc1ccc(-c2ccc(OCCN3CCOCC3)cc2)cn1)NCc1ccccc1 [KX2-391] (10000 nM)	79.9	64.9	84	84.2	48.7	45.3	97.6	110	67.6	12.5	8.87	26.2	50.1	50.1	51	99.2	45.4	28	52	45.8	60.8	54.9	25.6	56.5	58.9	56.3	9.36	69.1	73.8	18.4	77	46.6	26.2	61.2	28	34.5	19.9
Oc1ncc(N(CCCl)CCCl)c(O)n1 [Uracil mustard] (10000 nM)	107	94.2	107	104	97.5	95.4	100	115	99.1	98.4	83.4	135	123	101	97.6	98	133	100	99.5	97.9	107	107	78.5	103	99.4	105	115	98.9	98.1	98.3	101	95.6	99.1	89.4	101	104	100
O=C(/C=C/c1cccnc1)NCCCCC1CCN(C(=O)c2ccccc2)CC1 [Daporinad] (1000 nM)	97.5	91.1	101	98.8	108	93.5	101	105	90.5	67.6	108	73.1	93.1	117	97.3	99.5	49.6	88.1	19.9	103	14	51.5	138	14.3	4.62	13.2	0.76	17.5	15.9	6.81	9.14	19.2	37.5	14.8	0.79	4.89	110
Cc1ccc(-c2cc(C(F)(F)F)nn2-c2ccc(S(N)(=O)=O)cc2)cc1 [Celecoxib] (10000 nM)	93	113	101	101	107	104	99.5	68.4	103	116	105	68.1	82.2	104	99.8	99	62.7	95.2	92.9	104	106	99.9	118	102	101	108	109	101	89.8	97.3	108	96.8	104	94.7	103	93.5	97.4
COc1cc2c(Oc3ccc4[nH]c(C)cc4c3F)ncnc2cc1OCCCN1CCCC1 [Cediranib] (1000 nM)	95.7	97.4	88.1	101	96.8	78.4	103	123	112	114	102	127	91.5	117	94.6	105	153	91.4	104	83.6	90.4	110	128	100	95.5	99.8	92.8	91.7	80.8	84.7	70.5	105	100	103	90.8	56.6	106
CC[C@@H]1C(=O)N(C)c2cnc(Nc3ccc(C(=O)NC4CCN(C)CC4)cc3OC)nc2N1C1CCCC1 [BI 2536] (1000 nM)	97.5	90.3	79.6	70.4	32	43.9	95.1	113	92.2	109	93	29.2	100	101	102	101	98.3	90.7	75.9	28.3	52.5	79.9	31.7	44.7	75.6	39.3	26.5	74.7	66.6	24.2	44.4	72.4	73.8	58.9	42.3	55.6	26.9
CC1=C(/C=C/C(C)=C/C=C/C(C)=C/C(=O)O)C(C)(C)CCC1 [Tretinoin] (10000 nM)	68.7	76.9	101	102	98.5	55.4	98	84.1	102	61.1	80.3	75.1	73.5	36.8	88.9	94.4	127	103	62.2	62.2	98.2	75	86.2	56.5	89.9	84.7	61.6	72.3	90	72.9	60.7	63.5	79.2	56.4	81	78.9	21.8
O=C(O)CCCCC(CCSCc1ccccc1)SCc1ccccc1 (stereo not drawn) [CPI-613] (10000 nM)	94.8	80.4	98.6	99.7	103	88.7	98.8	92.7	102	80.9	104	94.3	104	90.9	91.2	104	131	97.6	98.9	96.5	104	105	97.5	97.5	100	100	101	108	106	99.2	103	93.6	98.2	105	98.2	102	106
